Measurements published in paper PMC3742241, “Novel Hybrid Virtual Screening Protocol Based on Molecular Docking and Structure-Based Pharmacophore for Discovery of Methionyl-tRNA Synthetase Inhibitors as Antibacterial Agents” (International Journal of Molecular Sciences, 2013).
≈ marks a conversion by molar mass, not a printed value.

What was measured:
[1] = test system: Methicillin-resistant Staphylococcus aureus ATCC 43300; assay: In vitro MIC, broth microdilution, MRSA; format: cell-based; details: 5 × 10^5 CFU/mL, 16 h at 37 °C, read-out: MIC, Gram-positive bacteria, MRSA
Experimental: (§1) The 15 final hit compounds were purchased and screened for preliminary in vitro antibacterial activity against our five ATCC-bacterial strain panel (Staphylococcus aureus ATCC 29213, Methicillin-resistant Staphylococcus aureus ATCC 43300, E. coli ATCC 25922, Pseudomonas aeruginosa ATCC 27853 and Klebsiella pneumoniae ATCC 700603) by using the standard broth dilution method. […] All of the 15 final hit compounds were tested against HEK293 cell lines to avoid potential cytotoxicity of normal human cells. […] Further chemical optimization is being performed to better understand the key residues for activity and selectivity.
(§2) MICs were determined using a microdilution method with Muellere Hinton Broth (MHB) for Staphylococci and Lennox Broth (LB) for Enterococci, following the National Committee for Clinical Laboratory Standards (NCCLS) (now called the Clinical Laboratory Standards Institute [CLSI]). The stock solutions of the test compounds were diluted to give a two-fold series, with final chemical concentrations ranging from […].

[2] = test system: Staphylococcus aureus ATCC 29213; assay: In vitro MIC, broth microdilution, S. aureus; format: cell-based; details: ATCC29213, 5 × 10^5 CFU/mL, 16 h at 37 °C, read-out: MIC, Gram-positive bacteria, S. aureus
Experimental: as §1, §2

[3] = test system: Escherichia coli ATCC 25922; assay: In vitro MIC, broth microdilution, E. coli; format: cell-based; details: ATCC25922, 5 × 10^5 CFU/mL, 16 h at 37 °C, read-out: MIC, Gram-negative bacteria, E. coli
Experimental: as §1, §2

[4] = test system: Klebsiella pneumoniae ATCC 700603; assay: In vitro MIC, broth microdilution, K. pneumoniae; format: cell-based; details: ATCC700603, 5 × 10^5 CFU/mL, 16 h at 37 °C, read-out: MIC, Gram-negative bacteria, K. pneumoniae
Experimental: as §1, §2

[5] = In vitro cytotoxicity assay (MTT); format: cell-based, Human; details: human; HEK293 cells; 48 h; MTT
Experimental: as §1
(§3) Human Embryonic Kidney 293 cell line (HEK293) was acquired from ATCC. The cells were cultured in DMEM medium (Gibco-BRL, Invitrogen Co. Ltd., Carlsbad, CA, USA) supplemented with 10% (v/v) fetal bovine serum plus 100 μg/mL amikacin. The cells were maintained in a 37 °C humidified incubator with 5% CO2 atmosphere. Analysis of in vitro cytotoxicity was performed in the presence of compounds or blank solvent on cell lines seeded in 96-well plates at the density of 2 × 10^3 cells/well in serum-containing media. After 24 h incubation at 37 °C, the cells were treated with different concentrations of compounds along with a blank solvent. The cells were incubated in these conditions for 48 h. The cell viability was assessed with the 3-(4,5-dimethylthiazol-2-yl)-2,5-diphenyltetrazolium bromide (MTT) method, as previously described.

HEK293 cells = assay: In vitro cytotoxicity assay (MTT); format: cell-based, Human
Experimental: as §1, §3

[6] = test system: Pseudomonas aeruginosa ATCC 27853; assay: In vitro MIC, broth microdilution, P. aeruginosa; format: cell-based; details: ATCC27853, 5 × 10^5 CFU/mL, 16 h at 37 °C, read-out: MIC, Gram-negative bacteria, P. aeruginosa
Experimental: as §1, §2

SMILES | MIC [1] | MIC [2] | MIC [3] | MIC [4] | IC50 at 48 h [5] | Cytotoxicity to HEK293 cells (in words) (HEK293 cells) | MIC [6]
CC1(C)Cc2c(ccc3ccccc23)C(NNC(=O)c2cccc(N)c2)=N1 [ZINC00729256] | 16 µg/mL (≈ 44.6 µM) | 8 µg/mL (≈ 22.3 µM) | 32 µg/mL (≈ 89.3 µM) | 16 µg/mL (≈ 44.6 µM) | > 20 µM | non-cytotoxicity | 4 µg/mL (≈ 11.2 µM)
Cc1ccc2ccc([C@H](Nc3ccccn3)c3ccc(C)c(C)c3)c(O)c2n1 [ZINC02086896] | 64 µg/mL (≈ 173 µM) | 32 µg/mL (≈ 86.6 µM) | 32 µg/mL (≈ 86.6 µM) | 64 µg/mL (≈ 173 µM) | 3.15 µM |  | 16 µg/mL (≈ 43.3 µM)
CNC(=O)NC(=O)CSc1nc2sc(-c3ccccc3)cc2c(=O)n1N [ZINC02181060] | 16 µg/mL (≈ 41.1 µM) | 4 µg/mL (≈ 10.3 µM) | 8 µg/mL (≈ 20.5 µM) | 32 µg/mL (≈ 82.2 µM) | 15.4 µM |  | 16 µg/mL (≈ 41.1 µM)
CCCC[n+]1c(N)c(C(=O)NCc2ccc(C)cc2)cc2c(=O)n3cccc(C)c3nc21 [ZINC02424508] | 32 µg/mL | 16 µg/mL | 16 µg/mL | 64 µg/mL | > 20 µM |  | 64 µg/mL
Cc1sc(NC(=O)c2ccco2)c(C(Nc2ccccn2)c2ccccc2)c1C (centres unmarked) [ZINC02709613] | 64 µg/mL (≈ 159 µM) | 64 µg/mL (≈ 159 µM) | 64 µg/mL (≈ 159 µM) | 64 µg/mL (≈ 159 µM) | > 20 µM |  | 16 µg/mL (≈ 39.7 µM)
COc1ccc(C(=O)N2CCN(CCNC(=O)C(=O)Nc3ccccc3)CC2)cc1 [ZINC04380079] | 64 µg/mL (≈ 156 µM) | 32 µg/mL (≈ 78 µM) | 64 µg/mL (≈ 156 µM) | 64 µg/mL (≈ 156 µM) | 6.84 µM |  | 64 µg/mL (≈ 156 µM)
CCc1ccc(NC(=O)C(=O)NCCN2CCN(C(=O)c3ccc(Cl)cc3Cl)CC2)cc1 [ZINC06843697] | 4 µg/mL (≈ 8.38 µM) | 4 µg/mL (≈ 8.38 µM) | 16 µg/mL (≈ 33.5 µM) | 64 µg/mL (≈ 134 µM) | > 20 µM | non-cytotoxicity | 8 µg/mL (≈ 16.8 µM)
CCCCCCCC[n+]1cccc(C(=O)N2CCNc3nc(NC(=O)C(C)C)[nH]c(=O)c32)c1 [ZINC08384332] | 32 µg/mL | 32 µg/mL | 32 µg/mL | 64 µg/mL | > 20 µM |  | 16 µg/mL
Cc1ccc2c(c1)c1c3n2CCN(CC(=O)CNNC(=O)c2ccccc2)C3CCC1 (centres unmarked) [ZINC08430843] | 32 µg/mL (≈ 76.8 µM) | 16 µg/mL (≈ 38.4 µM) | 64 µg/mL (≈ 154 µM) | 64 µg/mL (≈ 154 µM) | > 20 µM |  | 32 µg/mL (≈ 76.8 µM)
O=C(NCCN1CCN(C(=O)c2ccc(Cl)cc2Cl)CC1)C(=O)Nc1ccc(Br)cc1 [ZINC08451958] | 32 µg/mL (≈ 60.6 µM) | 32 µg/mL (≈ 60.6 µM) | 64 µg/mL (≈ 121 µM) | 64 µg/mL (≈ 121 µM) | > 20 µM |  | 64 µg/mL (≈ 121 µM)
Cc1ccccc1C(=O)N1CCN(CCNC(=O)C(=O)Nc2ccc(Br)cc2)CC1 [ZINC08452043] | 16 µg/mL (≈ 33.8 µM) | 8 µg/mL (≈ 16.9 µM) | 16 µg/mL (≈ 33.8 µM) | 32 µg/mL (≈ 67.6 µM) | 10.2 µM |  | 8 µg/mL (≈ 16.9 µM)
CN(C)CCCNC(=O)c1ccccc1NC(=O)c1ccc(-c2ccccc2)cc1 [ZINC10312776] | 64 µg/mL (≈ 159 µM) | 64 µg/mL (≈ 159 µM) | 64 µg/mL (≈ 159 µM) | 32 µg/mL (≈ 79.7 µM) | > 20 µM |  | 16 µg/mL (≈ 39.8 µM)
CC1CCCc2sc3nc(SCC(=O)NC(=O)Nc4ccccc4)n(N)c(=O)c3c21 (centres unmarked) [ZINC19797059] | 32 µg/mL (≈ 72.1 µM) | 32 µg/mL (≈ 72.1 µM) | 64 µg/mL (≈ 144 µM) | 64 µg/mL (≈ 144 µM) | > 20 µM |  | 64 µg/mL (≈ 144 µM)
CC1CCCc2sc3c(=O)n(N)c(SCC(=O)NC(=O)Nc4ccccc4)nc3c21 (centres unmarked) [ZINC19797060] | 64 µg/mL (≈ 144 µM) | 32 µg/mL (≈ 72.1 µM) | 64 µg/mL (≈ 144 µM) | 64 µg/mL (≈ 144 µM) | > 20 µM |  | 16 µg/mL (≈ 36.1 µM)
COc1cc(CNCCc2ccc(S(N)(=O)=O)cc2)ccc1OCC(=O)NC(C)(C)C [ZINC19922703] | 64 µg/mL (≈ 142 µM) | 32 µg/mL (≈ 71.2 µM) | 64 µg/mL (≈ 142 µM) | 64 µg/mL (≈ 142 µM) | > 20 µM |  | 32 µg/mL (≈ 71.2 µM)
